Measurements published in PubChem BioAssay AID540371 (The Scripps Research Institute Molecular Screening Center, 2011).
The source made the active and inactive calls. The rule behind the calls is not given here.

Molecular target: Melanin-concentrating hormone receptor 1 (Homo sapiens) (UniProt Q99705)
Assay: MCH receptor 1 blockade in cells – cell-based, fluorescence, dose response, set 3, selectivity assay for GPR7 antagonist project, late-stage follow-up (AID 540371)
Details: MCHR1-expressing cells

| IC50 (run 1) | IC50 (run 2) | IC50 (run 3) | SMILES |
| --- | --- | --- | --- |
| inactive | inactive | inactive | COc1ccc(Oc2c(Cl)cnn(Cc3c(F)cccc3F)c2=O)cc1 |
| 1.12 µM | 2.24 µM | 4.59 µM | COc1ccc(Oc2c(Cl)cnn(Cc3ccccc3-c3ccccc3)c2=O)cc1 |
| 4.01 µM | inactive | inactive | COc1ccc(Oc2c(Cl)cnn(Cc3ccc4ccccc4c3)c2=O)cc1 |
| 0.77 µM | 0.815 µM | 0.836 µM | COc1ccc(Oc2c(Cl)cnn(Cc3c(C)ccc4ccccc34)c2=O)cc1 |
| inactive | > 20 µM (inactive) | > 20 µM (inactive) | CCCOc1ccc(Oc2c(Cl)cnn(Cc3cccc4ccccc34)c2=O)cc1 |
| 3.06 µM | 7.68 µM | 5.64 µM | COc1ccc(Oc2c(Cl)cnn(Cc3ccccc3C)c2=O)cc1 |
| 1.5 µM | inactive | 6.46 µM | COc1ccc(Oc2c(Cl)cnn(Cc3cc(C)cc(C)c3)c2=O)cc1 |
| 1.59 µM | 5.22 µM | 6.71 µM | CCOc1ccc(Oc2c(Cl)cnn(Cc3cccc4ccccc34)c2=O)cc1 |
| 8.51 µM | inactive | inactive | COc1ccc(Oc2c(Cl)cnn(Cc3ccccc3)c2=O)cc1 |
| 0.988 µM | 1.7 µM | 1.61 µM | COc1ccc(Oc2c(Cl)cnn(Cc3cccc4ccccc34)c2=O)cc1 |
| 5.15 µM | 4.96 µM | 5.67 µM | COc1ccc(Oc2c(Cl)cnn(Cc3cccc4cnccc34)c2=O)cc1 |
| > 20 µM (inactive) | > 20 µM (inactive) | inactive | COc1ccc(Oc2c(Cl)cnn(Cc3c4ccccc4cc4ccccc34)c2=O)cc1 |
| 4.49 µM | 4.57 µM | 3.34 µM | COc1ccc(Oc2c(Cl)cnn(Cc3ccccc3C(F)(F)F)c2=O)cc1 |

Continued, compound first:

| SMILES | IC50 (run 1) | IC50 (run 2) | IC50 (run 3) |
| --- | --- | --- | --- |
| COc1ccc(Oc2c(Br)cnn(Cc3cccc4ccccc34)c2=O)cc1 | 0.892 µM | 2.14 µM | 1.66 µM |
| COc1ccc(Oc2c(Cl)cnn(CC(=O)C(c3ccccc3)c3ccccc3)c2=O)cc1 | 2.92 µM | 2.87 µM | 5.49 µM |
| COc1ccc(Nc2c(Cl)cnn(Cc3cccc4ccccc34)c2=O)cc1 | inactive | inactive | > 20 µM (inactive) |
| O=c1c(Oc2ccc3c(c2)CCO3)c(Cl)cnn1Cc1cccc2ccccc12 | 7.4 µM | > 20 µM (inactive) | > 20 µM (inactive) |
| COc1ccc(Sc2c(Cl)cnn(Cc3cccc4ccccc34)c2=O)cc1 | inactive | inactive | inactive |
| COc1ccc(Oc2c(Cl)c(C#N)nn(Cc3ccccc3C)c2=O)cc1 | 2.52 µM | 2.33 µM | 2.71 µM |
| CCOC(=O)C(c1cccc2ccccc12)n1ncc(Cl)c(Oc2ccc(OC)cc2)c1=O (stereo not drawn) | > 20 µM (inactive) | > 20 µM (inactive) | > 20 µM (inactive) |
| COc1ccc(Oc2c(Cl)cnn(C3c4ccccc4-c4ccccc43)c2=O)cc1 | > 20 µM (inactive) | > 20 µM (inactive) | > 20 µM (inactive) |
| C=Cc1nn(Cc2ccccc2C)c(=O)c(Oc2ccc(OC)cc2)c1C=C | 1.43 µM | 1.31 µM | 1.45 µM |
| COc1ccc(Oc2c(Cl)cnn(C(C(=O)c3ccccc3)c3ccccc3)c2=O)cc1 (stereo not drawn) | inactive | > 20 µM (inactive) | > 20 µM (inactive) |
| CCOC(=O)C(c1ccccc1)n1ncc(Cl)c(Oc2ccc(OC)cc2)c1=O (stereo not drawn) | 8.48 µM | inactive | 8.11 µM |
| CCOc1ccc(Oc2c(Cl)cnn(C3c4ccccc4-c4ccccc43)c2=O)cc1 | > 20 µM (inactive) | > 20 µM (inactive) | > 20 µM (inactive) |
| COc1ccc(Oc2c(C#N)cnn(Cc3cccc4ccccc34)c2=O)cc1 | 2.09 µM | 2.25 µM | 2.22 µM |
| CCCOc1ccc(Oc2c(Cl)cnn(C3c4ccccc4-c4ccccc43)c2=O)cc1 | > 20 µM (inactive) | > 20 µM (inactive) | > 20 µM (inactive) |
| CCOc1ccc(Oc2c(Cl)c(Br)nn(Cc3cccc4ccccc34)c2=O)cc1 | 2.39 µM | 6.02 µM | inactive |
| COc1ccc(Oc2c(Cl)cnn(C(c3ccccc3)c3ccccc3)c2=O)cc1 | inactive | > 20 µM (inactive) | 7.22 µM |
| CCOc1ccc(Oc2c(S(C)=O)cnn(Cc3cccc4ccccc34)c2=O)cc1 (stereo not drawn) | 6.19 µM | inactive | inactive |
| CCc1ccc(Oc2c(Cl)cnn(Cc3cccc4ccccc34)c2=O)cc1 | 1.95 µM | 1.72 µM | 2.08 µM |
